Laboratory results: paper PMC7602742, “Physiologically-Based Pharmacokinetic/Pharmacodynamic Model of MBQ-167 to Predict Tumor Growth Inhibition in Mice” (Pharmaceutics, 2020)

Tests used:
[1] = cited from earlier work
[2] = Physicochemical properties (PBPK model inputs); conditions: model input
Excerpt: The molecular weight of MBQ-167 is 338.414 g/mol and the water partition coefficient (logPoctanol:water) ratio is 4.944. […] The fu in plasma was estimated to 0.02. B/P ratio was initially estimated in the base PBPK model development phase and then optimized using a local sensitivity analysis (LSA) with a final value of 1.8.

[3] = Intrinsic clearance from in vitro hepatocytes; type: in vitro ADME; conditions: in vitro determined, read-out: Hep intrinsic CL
Excerpt: (§1) Due to the limited information of any active process in MBQ-167 renal excretion and/or tubular reabsorption, it was assumed that renal excretion was only mediated by glomerular filtration.

[4] = Metabolism on incubation in liver microsomes; type: in vitro ADME; conditions: incubated in liver microsomes
Excerpt: as §1

[5] = molecular target: T1, CYP1A2 (Homo sapiens, UniProt P05177); test: CYP inhibition; type: in vitro ADME
T1 sequence (P05177 1-516): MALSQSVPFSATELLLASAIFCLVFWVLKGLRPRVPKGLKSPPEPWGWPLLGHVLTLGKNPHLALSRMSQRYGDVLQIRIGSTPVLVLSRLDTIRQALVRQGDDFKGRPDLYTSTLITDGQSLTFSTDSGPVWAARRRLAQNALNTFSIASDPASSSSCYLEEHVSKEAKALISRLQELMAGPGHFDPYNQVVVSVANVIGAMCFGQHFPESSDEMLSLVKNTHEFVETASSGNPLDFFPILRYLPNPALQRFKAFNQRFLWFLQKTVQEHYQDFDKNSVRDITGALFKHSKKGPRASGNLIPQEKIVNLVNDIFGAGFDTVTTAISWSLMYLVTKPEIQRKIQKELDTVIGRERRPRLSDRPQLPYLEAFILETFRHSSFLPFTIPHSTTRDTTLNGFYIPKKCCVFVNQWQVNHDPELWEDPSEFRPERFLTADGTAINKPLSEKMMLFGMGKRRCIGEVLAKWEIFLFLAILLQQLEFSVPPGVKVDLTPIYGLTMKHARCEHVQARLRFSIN
Excerpt: as §1

[6] = molecular target: CYP2C19 (Homo sapiens, UniProt P33261); test: CYP inhibition; type: in vitro ADME
Excerpt: as §1

[7] = molecular target: CYP2C9 (Homo sapiens, UniProt P11712); test: CYP inhibition; type: in vitro ADME
Excerpt: as §1

[8] = molecular target: CYP3A4 (Homo sapiens, UniProt P08684); test: CYP inhibition; type: in vitro ADME
Excerpt: as §1

[9] = Plasma and tissue pharmacokinetics after single IP dose (observed); type: in vivo; conditions: female, BALB/c, mouse, single IP 10 mg/kg, mice; for AUC(0-t): read-out: AUC obs (AUC0-t)
Experimental: All animal studies were conducted under approved animal protocols (#A8180117, #A8180112) by the University of Puerto Rico Medical Sciences Campus Institutional Animal Care and Use Committee, in accordance with the principles and procedures outlined in the NIH Guideline for the Care and Use of Laboratory Animals. Four to five-week-old female BALB/c mice (Charles River Laboratories, Inc. Wilmington, MA, USA) were housed under pathogen-free conditions in HEPA-filtered cages and kept on a 12 h light/dark cycle, and controlled temperature (22–24 °C), and humidity (25%). Food and water were given ad libitum. MBQ-167 was prepared as a stock solution of 2 mg/mL in Cremophor®:ethanol:PBS (12.5:12.5:75) solution. Each mouse was administered a single 0.1 mL dose of MBQ-167 (in 12.5% ethanol, 12.5% Cremophor®, 75% phosphate buffered saline, pH 7.4) that corresponded to 10 mg/kg body weight (BW) by IP injection.
We used a validated bioanalytical method using supercritical fluid chromatography coupled with tandem mass spectrometry to quantify MBQ-167 in tumors and tissues, as previously described. The analysis was performed on an Acquity UPC^2 system (Waters Corp., Milford, MA, USA) coupled to a triple quadrupole tandem mass spectrometer (MS/MS). An Acquity UPC^2 BEH (3.0 × 100 mm^2, 1.7 μm) column was used for separation purposes.
The final MBQ-167 PBPK model was verified through both graphical and numerical analysis. Experimental and predicted longitudinal plasma concentration- (Cp) and tissue concentration- (Ct) profiles were generated, including the 95% confidence intervals (95% CI) of the observations at each sampling time and the mean predicted concentrations. LSA was performed to evaluate the relative impact of B/P, fu, CLR, CLtumor and PS in the plasma PK exposure parameters (AUC0-t and Cmax). The performance of the MBQ-167 PBPK model was assessed by the fold error at each tissue, which referred to the ratio of the predicted AUC0-t or Cmax to the observed AUC0-t or Cmax, respectively (Equation (1)). AUC0-t was calculated by the trapezoidal rule. Both graphical and numerical analyses were performed in RStudio version 1.2.5019 (Boston, MA, USA, 2019) with R version 3.5.1 (GNU project). (1) Fold ERROR PK parameter=Predicted PK parameter/Observed PK parameter

[10] = Tumor pharmacokinetics in 4T1 tumor-bearing mice (observed); type: in vivo; conditions: BALB/c, mouse, tumor (4T1), single IP 10 mg/kg
Experimental: Thirty-five BALB/c mice were injected with 2.5 × 10^5 4T1 murine metastatic breast cancer cells at the mammary fat pad under isoflurane inhalation (1–3% in oxygen using an inhalation chamber at 2 L/min) to produce primary tumors, as described. Following IP treatment with a single dose of MBQ-167 (10 mg/kg), five mice/group were sacrificed by cervical dislocation at 0.5, 1, 3, 6, 9,12, and 24 h. Following sacrifice, tumors were collected and flushed with normal saline, individually wrapped in aluminum foil, snap-frozen in liquid nitrogen, and stored frozen at −80 °C until use.
Tumor samples were extracted by liquid-liquid extraction method, as previously described by. Briefly, frozen tumors were thawed, weighed (100 mg), and homogenized using the Polytron PT 2100 instrument in pH 7.4 saline (1:4 w/v). […]
We used a validated bioanalytical method using supercritical fluid chromatography coupled with tandem mass spectrometry to quantify MBQ-167 in tumors and tissues, as previously described. […]
The final MBQ-167 PBPK model was verified through both graphical and numerical analysis. […] The performance of the MBQ-167 PBPK model was assessed by the fold error at each tissue, which referred to the ratio of the predicted AUC0-t or Cmax to the observed AUC0-t or Cmax, respectively (Equation (1)). AUC0-t was calculated by the trapezoidal rule. […]

[11] = system: GFP-MDA-MB-231 (TNBC) mammary fat pad tumors; test: Triple Negative tumor growth study (observed); type: in vivo, athymic nude (nu/nu) mice; conditions: 10 mg/kg BW IP three times a week for 108 days
Experimental: As published elsewhere, female athymic nude (nu/nu) mice, 4 to 5 weeks old (Charles River Laboratories, Inc., Wilmington, MA, USA) were maintained under pathogen-free conditions in HEPA-filtered cages (5 mice per cage) under controlled light (12 h light and dark cycle), temperature (22–24 °C), and humidity (25%).
Mammary fat pad tumors were established using green fluorescent protein (GFP)-tagged MDA-MB-435 (HER2++) cells in Matrigel (BD Biosciences, San Jose, CA, USA) or GFP-MDA-MB-231 (TNBC) cells by injecting at the fourth right mammary fat pad under isofluorane inhalation (1–3% in oxygen using an inhalation chamber at 2 L/min) to produce orthotopic primary tumors. […]
Mammary tumor growth was quantified as changes in the integrated density of green fluorescent protein (GFP) fluorescence. […] The FluorVivo small animal in vivo imaging system (INDEC Systems, Inc., Santa Clara, CA, USA) was used for whole body imaging of GFP fluorescence. Tumor fluorescence intensities were analyzed using Image J software (National Institutes of Health, Bethesda, MD, USA, 2019, Version 1.52q 13). Relative tumor growth was calculated as the integrated density of fluorescence of each tumor on each day of imaging relative to the integrated density of fluorescence of the same tumor on day 1 of treatment administration, relative to vehicle controls.

[12] = system: Cdc42; set-up: method as in PMID 28450422; conditions: inhibition of GTPase activation; read-out: half-maximal inhibitory concentration (IC50) for Cdc42; cited from earlier work
[13] = set-up: method as in PMID 31720502; conditions: cited from earlier work
[14] = system: mammary fat pad tumor and metastases; conditions: cited from earlier work

CYP2C9, sequence (P11712 whole entry): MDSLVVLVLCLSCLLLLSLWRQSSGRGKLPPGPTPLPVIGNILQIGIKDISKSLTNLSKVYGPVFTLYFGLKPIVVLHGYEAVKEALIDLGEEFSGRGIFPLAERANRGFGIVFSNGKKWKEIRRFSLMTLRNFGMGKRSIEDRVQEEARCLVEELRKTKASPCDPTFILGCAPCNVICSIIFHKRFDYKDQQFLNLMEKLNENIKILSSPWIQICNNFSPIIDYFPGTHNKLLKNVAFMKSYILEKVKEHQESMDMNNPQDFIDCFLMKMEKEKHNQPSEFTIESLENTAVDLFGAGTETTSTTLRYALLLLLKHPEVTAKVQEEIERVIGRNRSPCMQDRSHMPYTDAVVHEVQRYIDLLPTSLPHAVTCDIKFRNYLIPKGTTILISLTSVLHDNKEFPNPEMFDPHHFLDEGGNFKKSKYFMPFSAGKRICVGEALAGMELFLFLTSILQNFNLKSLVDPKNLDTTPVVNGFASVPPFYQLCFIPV
CYP2C19, sequence (P33261 whole entry): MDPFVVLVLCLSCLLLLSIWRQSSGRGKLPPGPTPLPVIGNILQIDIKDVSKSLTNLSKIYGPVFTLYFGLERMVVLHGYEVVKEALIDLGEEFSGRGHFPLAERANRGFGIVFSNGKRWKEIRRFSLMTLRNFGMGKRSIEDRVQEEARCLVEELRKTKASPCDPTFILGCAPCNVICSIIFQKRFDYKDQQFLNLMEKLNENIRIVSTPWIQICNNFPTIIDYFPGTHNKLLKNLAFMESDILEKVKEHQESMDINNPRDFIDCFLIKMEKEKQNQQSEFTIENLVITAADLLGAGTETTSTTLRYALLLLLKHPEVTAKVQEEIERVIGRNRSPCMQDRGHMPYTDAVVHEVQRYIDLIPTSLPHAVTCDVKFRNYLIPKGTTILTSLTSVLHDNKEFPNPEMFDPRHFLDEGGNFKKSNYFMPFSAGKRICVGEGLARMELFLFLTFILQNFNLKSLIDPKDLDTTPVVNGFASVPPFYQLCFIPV
CYP3A4, sequence (P08684 whole entry): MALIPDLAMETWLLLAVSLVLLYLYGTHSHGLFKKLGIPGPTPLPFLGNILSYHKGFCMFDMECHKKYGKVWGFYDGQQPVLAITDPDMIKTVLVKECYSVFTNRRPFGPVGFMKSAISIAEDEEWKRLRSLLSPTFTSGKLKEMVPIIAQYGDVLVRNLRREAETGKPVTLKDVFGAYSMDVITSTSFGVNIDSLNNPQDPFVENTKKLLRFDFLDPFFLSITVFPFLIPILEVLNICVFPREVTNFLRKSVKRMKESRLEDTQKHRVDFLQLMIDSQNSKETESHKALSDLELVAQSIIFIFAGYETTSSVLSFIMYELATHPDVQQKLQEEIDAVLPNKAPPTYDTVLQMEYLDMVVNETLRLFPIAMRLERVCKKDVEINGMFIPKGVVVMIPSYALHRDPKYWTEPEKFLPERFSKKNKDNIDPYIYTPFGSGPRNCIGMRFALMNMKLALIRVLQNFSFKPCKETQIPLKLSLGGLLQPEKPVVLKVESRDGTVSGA

O=c1cc(CN2CCOCC2)occ1OCCCCCSc1ccnc2cc(C(F)(F)F)ccc12 [EHT1864]
t1/2 [1]: 1.65 h

CCn1c2ccccc2c2cc(Nc3ccnc(NCCCN4CCOCC4)n3)ccc21 [EHop-016]
t1/2 [1]: 5.73 h

CCn1c2ccccc2c2cc(-n3nncc3-c3ccccc3)ccc21 [MBQ-167]
Compound Type [2]: Monoprotic Base | pKa ([2]; source not stated): 0.27 | logPo:w ([2]; octanol:water, source not stated): 4.944 | hepatocyte CLint [3]: 79 µL/min/1e6 cells | metabolites formed [4]: up to nine metabolites | CYP1A2 inhibition [5]: inhibits | CYP2C19 inhibition [6]: inhibits | CYP2C9 inhibition [7]: inhibits | CYP3A4 inhibition [8]: inhibits | Cmax ([9]; heart): 841 ng/mL | AUC(0-t) ([9]; heart): 949 ng·h/mL | Cmax ([9]; kidneys): 11200 ng/mL | AUC(0-t) ([9]; kidneys): 34300 ng·h/mL | Cmax ([9]; liver): 4790 ng/mL | AUC(0-t) ([9]; liver): 8390 ng·h/mL | Cmax ([9]; lung): 1540 ng/mL | AUC(0-t) ([9]; lung): 1890 ng·h/mL | Cmax ([9]; plasma): 840 ng/mL | AUC(0-t) ([9]; plasma): 1420 ng·h/mL | Cmax ([9]; spleen): 1690 ng/mL | AUC(0-t) ([9]; spleen): 3980 ng·h/mL | Cmax [10]: 1240 ng/mL | AUC(0-t) ([10]; read-out: AUC obs (AUC0-t)): 10300 ng·h/mL | observed relative reduction in the final tumor size [11]: 87.0% | IC50 [12]: […] | volume of distribution reported in the literature ([13]; mice of 20 g body weight): 400 mL | systemic plasma clearance (reported/observed) ([13]; mice): 2.15 mL/min | effect on metastases ([14]; 10 mg/kg BW, mice): total inhibition of metastases | start of mammary fat pad tumor size reduction after treatment ([14]; 10 mg/kg BW, mice): approximately 3 weeks | toxicity in vivo ([14]; preclinical studies): without apparent toxicity
